Here are results for seven molecules from patent US10858368B2, “Modulators of the 5-hydroxytryptamine receptor 7 and their method of use” (Temple University—Of The Commonwealth System of Higher …, priority 2016, dated 2020).

Molecules are shown by their SMILES.

Chain of 5HT7 receptors (P34969 whole entry): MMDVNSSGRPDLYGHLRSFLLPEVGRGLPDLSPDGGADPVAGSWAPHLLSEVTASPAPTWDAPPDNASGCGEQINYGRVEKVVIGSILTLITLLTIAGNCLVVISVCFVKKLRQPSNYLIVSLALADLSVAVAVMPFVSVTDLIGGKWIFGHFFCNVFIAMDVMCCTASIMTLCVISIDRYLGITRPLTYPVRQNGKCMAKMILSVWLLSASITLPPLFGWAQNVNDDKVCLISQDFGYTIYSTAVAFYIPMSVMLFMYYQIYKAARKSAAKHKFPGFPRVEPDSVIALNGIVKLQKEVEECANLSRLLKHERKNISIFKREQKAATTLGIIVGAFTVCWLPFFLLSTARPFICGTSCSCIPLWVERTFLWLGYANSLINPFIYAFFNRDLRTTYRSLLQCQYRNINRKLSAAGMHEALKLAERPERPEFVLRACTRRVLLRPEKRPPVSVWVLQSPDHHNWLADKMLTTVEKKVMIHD

The target of the assay is 5HT7 receptors (Homo sapiens (Human), UniProt P34969). The assay can be described thus: Radiolabel Binding Studies for Serotonin 5-HT7 Receptors, Method 2 ([3H]-5HT competition; Ki, and percent inhibition at 10 μM). To be noted: single concentration 10 uM; inhibition of radioligand binding to 5HT7 receptors; read-out: 5-HT7 % inhib @ 10 uM. Here is the method:
A solution of the compound of the disclosure to be tested is prepared as a 1-mg/ml stock in Assay Buffer or DMSO according to its solubility. A similar stock of the reference compound chlorpromazine is also prepared as a positive control. Eleven dilutions (5× assay concentration) of the compound of the disclosure and chlorpromazine are prepared in the Assay Buffer by serial dilution to yield final corresponding assay concentrations ranging from 10 pM to 10 μM.
A stock concentration of 5 nM [^3H]-5-Hydroxytryptamine ([^3H]-5HT) is prepared in 50 mM Tris-HCl, 10 mM MgCl2, 1 mM EDTA, pH 7.4 (Assay Buffer). Aliquots (50 μl) of radioligand are dispensed into the wells of a 96-well plate containing 100 al of Assay Buffer. Duplicate 50-μl aliquots of the compound of the disclosure test and chlorpromazine positive control reference compound serial dilutions are added.
Membrane fractions of cells expressing recombinant 5HT7 receptors (50 μL) are dispensed into each well. The membranes are prepared from stably transfected cell lines expressing 5HT7 receptors cultured on 10-cm plates by harvesting PBS-rinsed monolayers, resuspending and lysing in chilled, hypotonic 50 mM Tris-HCl, pH 7.4, centrifuging at 20,000×g, decanting the supernatant and storing at −80° C.; the membrane preparations are resuspended in 3 ml of chilled Assay Buffer and homogenized by several passages through a 26 gauge needle before using in the assay.
The 250-μl reactions are incubated at room temperature for 1.5 hours, then harvested by rapid filtration onto 0.3% polyethyleneimine-treated, 96-well filter mats using a 96-well Filtermate harvester. Four rapid 500-μl washes are performed with chilled Assay Buffer to reduce non-specific binding. The filter mats are dried, then scintillant is added to the filters and the radioactivity retained on the filters is counted in a Microbeta scintillation counter.
Raw data (dpm) representing total radioligand binding (i.e., specific+non-specific binding) are plotted as a function of the logarithm of the molar concentration of the competitor (i.e., test or reference compound). Non-linear regression of the normalized (i.e., percent radioligand binding compared to that observed in the absence of test or reference compound) raw data is performed in Prism 4.0 (GraphPad Software) using the built-in three parameter logistic model describing ligand competition binding to radioligand-labeled sites: y=bottom+[(top−bottom)/(1+10×−log IC50)] where bottom equals the residual radioligand binding measured in the presence of 10 μM reference compound (i.e., non-specific binding) and top equals the total radioligand binding observed in the absence of competitor. The log IC50 (i.e., the log of the ligand concentration that reduces radioligand binding by 50%) is thus estimated from the data and used to obtain the Ki by applying the Cheng-Prusoff approximation: Ki=IC50/(1+[ligand]/KD) where [ligand] equals the assay radioligand concentration and KD equals the affinity constant of the radioligand for the target receptor.
Compounds of the disclosure are also screened at a single concentration of 10 μM using the same method described for the Radiolabel Binding Studies for Serotonin 5HT7 receptors to determine the percent inhibition of [^3H]-5HT binding.
`Cc1ccc(N2CCN(CCC3CC4(CCN(Cc5ccccc5)CC4)C(=O)O3)CC2)cc1` (stereo not shown) [Entry 1]: the inhibition at 10 µM was determined as 96.5%.
Under `Cc1ccc(N2CCN(CCC3CC4(CCNCC4)C(=O)O3)CC2)cc1` (stereo not shown) [Entry 2] stands 88.8%; under `COC(=O)N1CCC2(CC1)CC(CCN1CCN(c3ccc(C)cc3)CC1)OC2=O` (stereo not shown) [Entry 3], 90%; under `CC(=O)N1CCC2(CC1)CC(CCN1CCN(c3ccc(C)cc3)CC1)OC2=O` (stereo not shown) [Entry 4], 88.5%.
The same measure for `CNC(=O)N1CCC2(CC1)CC(CCN1CCN(c3ccc(C)cc3)CC1)OC2=O` (stereo not shown) [Entry 5]: 91.6%; for `Cc1ccc(N2CCN(CCC3CC4(CCN(S(C)(=O)=O)CC4)C(=O)O3)CC2)cc1` (stereo not shown) [Entry 6]: 90.5%.
The same measure for `Cc1nc2cccc(N3CCN(CCC4CC5(CCN(S(C)(=O)=O)CC5)C(=O)O4)CC3)c2[nH]1` (stereo not shown) [Entry 8]: 100%.
